According to PubChem BioAssay AID1963851 (Molecular Pharmacology Branch, DTP, NCI, 2024):

Tested on: 188146-221-R-J1-PDC complex spheroid viability
Test: Anticancer human tumor 188146-221-R-J1-PDC patient-derived colon adenocarcinoma cell line growth inhibition [POLQ]
Settings: for IC50: curve of first compound; for viability, T/C: stronger effect = lower value
Method: Multicellular complex tumor spheroid response to Polymerase (POL) inhibitors (novobiocin, ART-558, RP6685) in combination with a variety of drugs and investigational agents in selected tumor cell lines
The POL inhibitors (novobiocin, ART-558, and RP6685) were evaluated both individually and in combination with standard of care and investigational anticancer small molecules within a complex spheroid model of solid tumors. . Complex spheroids include a stromal component modeled by human endothelial cells (HUVEC) and fibroblasts modeled by human mesenchymal stem cells (MSCs). The concentration ranges selected for each drug and investigational agent were based upon clinically achievable concentrations if the clinical Cmax of the agent was known.
Compounds. The drugs and investigational agents: novobiocin (NSC847541), ART-558 (NSC835418), RP-6685 (NSC848927), peposertib (NSC802822), ceralasertib (NSC780249), elimusertib (NSC800525), camonsertib (NSC841442), AZD-1390 (NSC803789), olaparib (NSC753686), talazoparib (NSC767125), rucaparib (NSC756644), sotorasib (NSC818433), MRTX-1133 (NSC836407), SN-38 (NSC673596), topotecan (NSC609699), epotoside (NSC141540), doxorubicin (NSC123127), gemcitabine (NSC613327), 5-fluorouracil (NSC19893), paclitaxel (NSC125973), vemurafenib (NSC761431), MSA-2 (NSC828583), SN-011 (NSC837082), adavosertib (NSC754352), prexasertib (NSC758257), carboplatin (NSC241240) and oxaliplatin (NSC266046), were obtained from the National Cancer Institute (NCI) Developmental Therapeutics Program Chemical Repository (21). The FDA-approved anticancer drug set is available from the Developmental Therapeutics Program at https://dtp.cancer.gov/organization/dscb/obtaining/. […] The stock solutions were prepared in dimethyl sulfoxide (DMSO, Sigma-Aldrich, St. Louis, MO, cat. D2650), except for the platinum compounds which were prepared in saline (Quality Biological, Gaithersburg, MD, cat. 114-055-101), at 800-fold the tested concentration and stored at -70 degrees C prior to their use. All drugs and investigational agents were tested over a range starting from a high concentration at or near the clinical Cmax and decreasing in half-log increments. If the clinical Cmax for an agent had not been determined, the highest concentration tested was 10 microM, except for SN-38, which was tested at a high concentration of 1 microM.
Cell Culture. All cells were maintained in an incubator at 37 degrees C and 5% CO2 with 95% humidity. The PDC lines were cultured according to standard operating procedures established by the NCI PDMR (https://pdmr.cancer.gov). Table 3 of the manuscript, lists the cell lines along with the number of the three cell types plated to form the mct-spheroids and media for tumor cell growth. After thawing, all PDC lines, except 997537-175-T-J1-PDC and 415267-285-R-J2-PDC, were cultured in Matrigel-coated flasks prepared with a working solution of 1X Ham's F-12 nutrient mix, without supplementation (Thermo Fisher Scientific, cat. 11765054), 100 U/mL penicillin-streptomycin (Thermo Fisher Scientific, cat. 15140122), and 2.5% Matrigel (Corning Inc., Corning, NY, cat. 354248) for the first three passages. The two PDC lines 997537-175-T-J1-PDC and 415267-285-R-J2-PDC were cultured on uncoated flasks. The 857933-349-R-J2-PDC line was cultured in 6C/Colon 1B media containing advanced DMEM/F-12 (Thermo Fisher Scientific, cat. 12634028), 10 mM HEPES (Thermo Fisher Scientific, cat. 15630080), 1X GlutaMAX supplement (Thermo Fisher Scientific, cat. 35050061), 0.1 mg/mL primocin (InvivoGen, San Diego, CA, cat. ant-pm-2), 10% defined fetal bovine serum, heat inactivated (HyClone Laboratories Inc., Logan, UT, cat. SH30070.03HI), 50% L-WRN conditioned media (ATCC, cat. CRL-3276), 1.25 mM N-Acetyl-L-cysteine (Sigma-Aldrich, cat. A9165), 10 mM nicotinamide (Sigma-Aldrich, cat. N0636), 1X B-27 supplement (Thermo Fisher Scientific, cat. 17504044), 1X N-2 supplement (Thermo Fisher Scientific, cat. […]

[1] = second compound 0.0316 µM, first compound 0.0316 µM
[2] = second compound 0.0316 µM, first compound 0.1 µM
[3] = second compound 0.0316 µM, first compound 0.316 µM
[4] = second compound 0.0316 µM, first compound 1 µM
[5] = second compound 0.0316 µM, first compound 3.16 µM
[6] = second compound 0.0316 µM, first compound 10 µM
[7] = second compound 0.1 µM, first compound 0.0316 µM
[8] = second compound 0.1 µM, first compound 0.1 µM
[9] = second compound 0.1 µM, first compound 0.316 µM
[10] = second compound 0.1 µM, first compound 1 µM
[11] = second compound 0.1 µM, first compound 3.16 µM
[12] = second compound 0.1 µM, first compound 10 µM
[13] = second compound 0.316 µM, first compound 0.0316 µM
[14] = second compound 0.316 µM, first compound 0.1 µM
[15] = second compound 0.316 µM, first compound 0.316 µM
[16] = second compound 0.316 µM, first compound 1 µM
[17] = second compound 0.316 µM, first compound 3.16 µM
[18] = second compound 0.316 µM, first compound 10 µM
[19] = second compound 1 µM, first compound 0.0316 µM
[20] = second compound 1 µM, first compound 0.1 µM
[21] = second compound 1 µM, first compound 0.316 µM
[22] = second compound 1 µM, first compound 1 µM
[23] = second compound 1 µM, first compound 3.16 µM
[24] = second compound 1 µM, first compound 10 µM
[25] = second compound 3.16 µM, first compound 0.0316 µM
[26] = second compound 3.16 µM, first compound 0.1 µM
[27] = second compound 3.16 µM, first compound 0.316 µM
[28] = second compound 3.16 µM, first compound 1 µM
[29] = second compound 3.16 µM, first compound 3.16 µM
[30] = second compound 3.16 µM, first compound 10 µM
[31] = second compound 10 µM, first compound 0.0316 µM
[32] = second compound 10 µM, first compound 0.1 µM
[33] = second compound 10 µM, first compound 0.316 µM
[34] = second compound 10 µM, first compound 1 µM
[35] = second compound 10 µM, first compound 3.16 µM
[36] = second compound 10 µM, first compound 10 µM
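Further: spheroids exposed to compounds for seven days.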
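Wherever viability, T/C is given: 100% = DMSO vehicle control viability.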

For CCc1cc2c(N3CCc4c(cc(Cn5ccnc5)cc4-c4cn(C)nc4C(F)(F)F)C3=O)ccnc2c(OC)n1 + Nc1ccc(C#CCN(C(=O)Cc2ncc(C(F)(F)F)cc2C(F)(F)F)c2ccc(F)cc2)nn1, the IC50 (second compound 0.0316 µM) was > 10 µM, the IC50 (second compound 0.1 µM) was 9.81 µM and the IC50 (second compound 0.316 µM) was > 10 µM. The IC50 (second compound 1 µM) was 9.79 µM, the IC50 (second compound 3.16 µM) was > 10 µM and the IC50 (second compound 10 µM) was > 10 µM. It also gave a viability, T/C [1] of 105%, a viability, T/C [2] of 107% and a viability, T/C [3] of 90.8%. The viability, T/C [4] was 93.7%, the viability, T/C [5] was 73% and the viability, T/C [6] was 54.6%. The viability, T/C [7] was 110%, the viability, T/C [8] was 116% and the viability, T/C [9] was 87.9%. The viability, T/C [10] was 104%, the viability, T/C [11] was 82.3% and the viability, T/C [12] was 48.6%. The viability, T/C [13] was 119%, the viability, T/C [14] was 108% and the viability, T/C [15] was 101%. It also gave a viability, T/C [16] of 91.4%, a viability, T/C [17] of 75.6% and a viability, T/C [18] of 51.3%. The viability, T/C [19] was 113%, the viability, T/C [20] was 101% and the viability, T/C [21] was 85.8%. The viability, T/C [22] was 95.6%, the viability, T/C [23] was 72.4% and the viability, T/C [24] was 48.2%. For the same compound, the viability, T/C [25] was 106%, the viability, T/C [26] was 91% and the viability, T/C [27] was 94.1%. It also gave a viability, T/C [28] of 87.8%, a viability, T/C [29] of 87.1% and a viability, T/C [30] of 50%. It also gave a viability, T/C [31] of 110%, a viability, T/C [32] of 113% and a viability, T/C [33] of 107%. For the same compound, the viability, T/C [34] was 82.5%, the viability, T/C [35] was 71.2% and the viability, T/C [36] was 52.5%.

For O=C(Nc1ccc(O)c(NS(=O)(=O)c2ccc(F)cc2)c1)c1ccc(-c2ccccc2)cc1 + Nc1ccc(C#CCN(C(=O)Cc2ncc(C(F)(F)F)cc2C(F)(F)F)c2ccc(F)cc2)nn1, the IC50 (second compound 0.0316 µM) was > 10 µM, the IC50 (second compound 0.1 µM) was > 10 µM and the IC50 (second compound 0.316 µM) was > 10 µM. For the same compound, the IC50 (second compound 1 µM) was > 10 µM, the IC50 (second compound 3.16 µM) was > 10 µM and the IC50 (second compound 10 µM) was > 10 µM. For the same compound, the viability, T/C [1] was 104%, the viability, T/C [2] was 100% and the viability, T/C [3] was 88%. The viability, T/C [4] was 109%, the viability, T/C [5] was 92.7% and the viability, T/C [6] was 72%. The viability, T/C [7] was 105%, the viability, T/C [8] was 119% and the viability, T/C [9] was 109%. It also gave a viability, T/C [10] of 104%, a viability, T/C [11] of 88.9% and a viability, T/C [12] of 63.6%. For the same compound, the viability, T/C [13] was 119%, the viability, T/C [14] was 100% and the viability, T/C [15] was 93.5%. The viability, T/C [16] was 92%, the viability, T/C [17] was 93.6% and the viability, T/C [18] was 60.1%. For the same compound, the viability, T/C [19] was 124%, the viability, T/C [20] was 112% and the viability, T/C [21] was 108%. The viability, T/C [22] was 79.7%, the viability, T/C [23] was 97.8% and the viability, T/C [24] was 73.2%. The viability, T/C [25] was 111%, the viability, T/C [26] was 110% and the viability, T/C [27] was 118%. It also gave a viability, T/C [28] of 99.9%, a viability, T/C [29] of 107% and a viability, T/C [30] of 60.1%. It also gave a viability, T/C [31] of 111%, a viability, T/C [32] of 118% and a viability, T/C [33] of 110%. The viability, T/C [34] was 99.1%, the viability, T/C [35] was 110% and the viability, T/C [36] was 68.6%.
